Measurements taken from patent publication US5877199A, “Heterocyclic compounds, their preparation and their therapeutic use” (priority 1994, dated 1999).

molecular target: T1, m1 muscarinic receptors (Homo sapiens, UniProt P11229); experiment: Effect on ACh binding: ACh inhibition of 3H-NMS binding (indirect assay) on CHO cell membranes; conditions: tested at 3 μg/ml; 0.15 nM 3H-NMS, 30 μM ACh, 0.2 mM GTP, pH 7.4, 30° C., two hours
T1 construct: expressed in transfected cells; host or cells: CHO (Chinese Hamster Ovary) cells, membranes
T1 sequence (P11229 1-460): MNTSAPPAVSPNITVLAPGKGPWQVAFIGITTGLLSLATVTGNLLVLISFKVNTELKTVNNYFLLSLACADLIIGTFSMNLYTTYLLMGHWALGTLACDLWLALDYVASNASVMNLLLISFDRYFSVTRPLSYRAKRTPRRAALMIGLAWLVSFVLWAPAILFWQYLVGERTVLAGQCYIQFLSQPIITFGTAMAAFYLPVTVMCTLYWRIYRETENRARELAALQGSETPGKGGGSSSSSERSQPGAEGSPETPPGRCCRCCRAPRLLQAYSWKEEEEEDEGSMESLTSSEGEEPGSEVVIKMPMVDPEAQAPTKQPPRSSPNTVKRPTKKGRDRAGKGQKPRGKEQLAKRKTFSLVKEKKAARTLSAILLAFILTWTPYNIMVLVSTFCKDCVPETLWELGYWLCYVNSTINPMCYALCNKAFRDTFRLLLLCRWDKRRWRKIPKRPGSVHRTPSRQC
Description: The compounds of the present invention may be assayed for allosteric activity at m1 muscarinic receptors as described below, although the assays we describe are not necessarily exhaustive, and other assays may be employed, as desired, to establish allosterism.
A suitable cell line is CHO (Chinese Hamster Ovary), which are readily engineered to express only one receptor sub-type.
To obtain the large amount of cell membranes required, plates of 530 cm^2 culture area were used. CHO cells which express m1, m2, m3 and m4 receptors were grown separately in MEM alpha medium containing 10% newborn calf serum and antibiotics. When cells reached confluence, they were washed twice with 10 ml of 20 mM HEPES containing 10 mM EDTA (pH 7.4), scraped into the same buffer and homogenized using a Polytron (trademark) homogenizer (setting 5-6 for 5 sec×2). Membrane pellets were obtained by centrifugation (40000×g, 10 min, 4° C.) and resuspended in 20 mM HEPES-0.1 mM EDTA (pH 7.4). Centrifugation and resuspension were repeated twice to wash the cell membranes. After measurement of membrane protein, the membranes (1 or 2 mg protein/ml) were stored at -70° C.
While the direct assay measures ACh (=acetylcholine) binding only to the high affinity state, the indirect assay measures effects only at the low affinity state. This is achieved by including 0.2 mM GTP in the assay. In this assay a fixed concentration of ^3 H-NMS (roughly the Kd value) is incubated in the absence and presence of a fixed concentration of ACh (at about the IC50 value) and the effects of three concentrations of test agent are measured, again in the absence and presence of ACh.
Calculating the effects on ^3 H-NMS binding alone is as follows: binding in the presence of the agent is expressed as a percentage of binding in its absence and, if the effect is inhibitory, an IC50 is estimated graphically. The assay also contains a single high concentration of ^3 H-NMS (4 nM, about 30 times the Kd) which provides an estimate of Bmax (i.e. maximum binding).
Expressing the effect on cold ACh binding will be explained with reference to FIGS. 1a, b and c. These figures show theoretical data and the effects of the transformations described below. In FIGS. 1a and 1b ^3 H-NMS and cold ACh are present at their Kd concentrations; in FIG. 1a the agent has a negative allosteric effect on ^3 H-NMS, while in FIG. 1b it has a positive allosteric effect on ^3 H-NMS. The left panels show the amount of ^3 H-NMS specifically bound in the assay. If the affinity of ACh is reduced by the test agent, as shown in the top panels of FIGS. 1a and 1b, the inhibition by ACh will decrease, but the counts recovered will also depend on the effect of the agent on ^3 H-NMS binding alone. To calculate the effect on ACh binding the inhibitory effect of ACh is first calculated as a percent of its own control in the absence of ACh. Next it is assumed that fractional inhibition is the same as tractional occupancy, and inhibition in the presence of agent is expressed as a percentage of inhibition in the absence of agent. The effects of these transformations are shown in the centre panels. Expressing inhibition by ACh in the presence of agent as a percentage of inhibition in the absence of agent allows the effect of the agent on cold ACh binding to be seen on the same scale as the effect on ^3 H-NMS and ^3 H-ACh binding and is generally preferred.
If the concentration of ^3 H-NMS used in the indirect assay is around the Kd value or less, the transformation described above provides a qualitative and semi-quantitative measure of the agent's effect. If a higher concentration of ^3 H-NMS is used, or if the agent has a positive allosteric effect on ^3 H-NMS, then the results of this transformation may be misleading. […] It is assumed that ACh binds to a single affinity state i.e. that its inhibition curve has a slope of 1, and so an IC50 is calculated from the percentage inhibition of control binding. […]

Point of comparison: `Cc1cc(CC(=O)O)c(OCc2ccccc2)c2c1c1ccccc1n2Cc1ccccc1` [Example 134, (9-Benzyl-1-benzyloxy-4-methylcarbazol-2-yl)acetic Acid], “Effect on ACh Binding” value 3.40. Against it:
- CSc1c(CC(=O)O)ccc2c3ccccc3n(Cc3ccccc3)c12 [Example 5, (9-Benzyl-1-methylthiocarbazol-2-yl)acetic acid] — lower, 2.62
- CSc1c(CC(=O)O)ccc2c3ccccc3n(Cc3ccc(Cl)cc3)c12 [Example 7, [9-(4-Chlorobenzyl)-1-methylthiocarbazol-2-yl]acetic acid] — higher, 3.55
- CSc1c(CC(=O)OC(C)(C)C)ccc2c3ccccc3n(Cc3ccc(F)cc3)c12 [Example 8, tert-Butyl [9-(4-fluorobenzyl)-1-methylthiocarbazol-2-yl]acetate] — higher, 3.46
- CSc1c(CC(=O)O)cc(C)c2c3ccccc3n(Cc3ccccc3)c12 [Example 14, (9-Benzyl-4-methyl-1-methylthiocarbazol-2-yl)acetic acid] — higher, 3.89
- CSc1c(C(Cc2ccccc2)C(=O)O)cc(C)c2c1[nH]c1ccccc12 (stereo not drawn) [Example 15, 2-(4-Methyl-1-methylthiocarbazol-2-yl)-3-phenylpropionic acid] — lower, 2.42
- CSc1c(C(Cc2ccccc2)C(=O)O)ccc2c3ccccc3n(Cc3ccccc3)c12 (stereo not drawn) [Example 17, 2-(9-Benzyl-1-methylthiocarbazol-2-yl)-3-phenylpropionic acid] — lower, 2.50
- CSc1c(C(Cc2ccc([N+](=O)[O-])cc2)C(=O)O)ccc2c3ccccc3n(Cc3ccc([N+](=O)[O-])cc3)c12 (stereo not drawn) [Example 23, 2-[9-(4-Nitrobenzyl)-1-methylthiocarbazol-2-yl]-3-(4-nitrophenyl)propionic acid] — lower, 2.72
- Cc1c(CCC(=O)O)ccc2c3ccccc3n(Cc3ccccc3)c12 [Example 37, 3-(9-Benzyl-1-methylcarbazol-2-yl)propionic acid] — lower, 2.09
- CSc1c(OCC(=O)O)ccc2c3ccccc3n(Cc3ccccc3)c12 [Example 46, (9-Benzyl-1-methylthiocarbazol-2-yloxy)acetic acid] — lower, 2.21
- O=C(O)CC1CCc2[nH]c3ccccc3c2C1 (stereo not drawn) [Example 61, (1,2,3,4-Tetrahydrocarbazol-3-yl)acetic acid] — lower, 2.11
- CSc1c(Cc2nnn[nH]2)ccc2c3ccccc3n(Cc3ccccc3)c12 [Example 77, 5-[(9-Benzyl-1-methylthiocarbazol)-2-ylmethyl]-1H-tetrazole] — higher, 3.69
- O=C(O)CC1CCc2c(n(Cc3ccccc3)c3ccccc23)S1 (stereo not drawn) [Example 83, 2-(9-Benzyl-2,3,4,9-tetrahydrothiopyrano[2,3-b]indol-2-yl) acetic acid] — lower, 2.08
- c1ccc(Cn2c3c(c4ccccc42)CCC(Cc2nnn[nH]2)S3)cc1 (stereo not drawn) [Example 84, 5-(9-Benzyl-2,3,4,9-tetrahydrothiopyrano[2,3-b]indol-2-yl)methyltetrazole] — lower, 3.30
- O=C(O)Cc1cccc2c1ccn2Cc1ccccc1 [Example 91, (1-Benzylindol-4-yl)acetic acid] — lower, 2.76
- CSc1c(Cc2nnn[nH]2)cc(C)c2c3ccccc3n(Cc3ccccc3)c12 [Example 97, 5-[(9-Benzyl-4-methyl-1-methylthiocarbazol)-2-yl-methyl]-1H-tetrazole] — higher, 4.97
- CCCc1cc(CC(=O)O)c(SC)c2c1c1ccccc1n2Cc1ccccc1 [Example 116, (9-Benzyl-1-methylthio-4-propylcarbazol-2-yl)acetic Acid] — higher, 3.99
- CCCOc1c(CC(=O)O)cc(C)c2c3ccccc3n(Cc3ccccc3)c12 [Example 132, (9-Benzyl-4-methyl-1-propoxycarbazol-2-yl)acetic Acid] — lower, 2.68
- CSc1c(CC(=O)O)cc(C)c2c3ccccc3n(Cc3cccc(OCc4ccccc4)c3)c12 [Example 136, [9-(3-Benzyloxybenzyl)-4-methyl-1-methylthiocarbazol-2-yl]acetic Acid] — lower, 2.36
- CSc1c(CC(=O)O)cc(C)c2c3ccccc3n(Cc3cccc(F)c3)c12 [Example 141, [9-(3-Fluorobenzyl)-4-methyl-1-methylthiocarbazol-2-yl]acetic Acid] — higher, 3.81
- CSc1c(CC(=O)O)cc(C)c2c3ccccc3n(Cc3ccc(F)cc3)c12 [Example 143, [9-(4-Fluorobenzyl)-4-methyl-1-methylthiocarbazol-2-yl]acetic Acid] — higher, 5.36
- CSc1c(CC(=O)O)cc(C)c2c3ccccc3n(Cc3cccc(Cl)c3)c12 [Example 145, [9-(3-Chlorobenzyl)-4-methyl-1-methylthiocarbazol-2-yl]acetic Acid] — higher, 5.27
- CSc1c(CC(=O)O)cc(C)c2c3ccccc3n(Cc3ccc(Cl)c(Cl)c3)c12 [Example 149, [9-(3,4-Dichlorobenzyl)-4-methyl-1-methylthiocarbazol-2-yl]acetic Acid] — higher, 6.49
- CSc1c(Cc2nnn[nH]2)cc(C)c2c3ccccc3n(Cc3ccc(Cl)c(Cl)c3)c12 [Example 152, 5-[9-(3,4-Dichlorobenzyl)-4-methyl-1-methylthiocarbazol-2-yl]methyl-1H-tetrazole] — lower, 2.02
- O=C(O)Cc1ccc2c3ccccc3n(Cc3cccc(OCc4ccccc4)c3)c2c1 [Example 165, [9-(3-Benzyloxybenzyl)carbazol-2-yl]acetic Acid] — lower, 2.24
- CCCc1cc(C(Cc2cccc([N+](=O)[O-])c2)C(=O)O)c(SC)c2c1c1ccccc1n2Cc1cccc([N+](=O)[O-])c1 (stereo not drawn) [Example 172, 2-[1-Methylthio-9-(3-nitrobenzyl)-4-propylcarbazol-2-yl]-3-(3-nitrophenyl)propionic Acid] — lower, 2.59
- CCCc1cc(CC(=O)O)c(SC)c2c1c1ccccc1n2Cc1ccc([N+](=O)[O-])cc1 [Example 176, [1-Methylthio-9-(4-nitrobenzyl)-4-propylcarbazol-2-yl]acetic Acid] — lower, 2.08
- CSc1c(CC(=O)O)cc(C)c2c3ccccc3n(Cc3ccc(Cl)cc3)c12 [Example 180, [9-(4-Chlorobenzyl)-4-methyl-1-methylthiocarbazol-2-yl]acetic Acid] — higher, 5.02
- COc1ccc2c(c1)c1c(C)cc(CC(=O)O)c(SC)c1n2Cc1ccccc1 [Example 182, (9-Benzyl-6-methoxy-4-methyl-1-methylthiocarbazol-2-yl)acetic Acid] — lower, 2.57
- CSc1c(CC(=O)O)cc(C(C)C)c2c3ccccc3n(Cc3ccccc3)c12 [Example 190, (9-Benzyl-4-isopropyl-1-methylthiocarbazol-2-yl)acetic Acid] — higher, 4.78
